Source: publication PMC3325260, “Label-Free Phenotypic Profiling Identified D-Luciferin as a GPR35 Agonist” (PLoS ONE, 2012)
Read-outs that look alike come from different tables or passages of the source. Values belong to the compound of their own block, whether it stands above or below them.

Tests used:
[1] = system: ERK1/2 phosphorylation in HT-29 cells; assay: ERK phosphorylation, Western blot; type: cell-based, human; settings: for effect on the D-luciferin-induced ERK phosphorylation: 5 min after 32 µM D-luciferin, antagonist at different doses
Excerpt: Since ligand-directed functional selectivity or biased agonism is quite common to many, if not all, GPCRs, we next examined the activity of D-luciferin using ERK phosphorylation, receptor internalization and Tango β-arrestin translocation assays. ERK phosphorylation is a hallmark of the activation and signaling of many GPCRs including GPR35 [20].
The phosphorylated ERK and total ERK were blotted, and actin was used as control. Representative images obtained from 2 independent measurements were used.
The p44/42 MAP kinases were examined using Western blotting. Whole cell lysates were collected after the cells were treated with a compound or DMSO for 1 hr. Equivalent gel loading was confirmed by probing with anti-actin body. The total ERK1/2 and phosphorylated ERK1/2 were blotted using respective antibodies.

[2] = target: T1, endogenous GPR35 in HT-29 cells (Homo sapiens, UniProt Q9HC97); assay: DMR antagonist assay (antagonist pre-treatment, then agonist); type: cell-based; design: endogenous in cells; host or cells: HT-29; settings: for IC50: 5 min pre-stimulation with antagonist, then D-luciferin at 32 µM, n = 4, read-out: apparent IC50 of blocking the DMR induced by D-luciferin
Method: (§1) Epic® is a wavelength interrogation reader system tailored for resonant waveguide grating biosensors in microtiter plates. This system consists of a temperature-control unit (26°C), an optical detection unit, and an on-board liquid handling unit with robotics. The detection unit is centered on integrated fiber optics, and enables kinetic measures of cellular responses with a time interval of ∼15 sec. Cells were directly seeded in Epic® plates and cultured overnight to form confluent monolayer in the cell culture medium. The cell seeding density was 32, 000 cells per well, unless specifically mentioned. After being washed twice, the cells were maintained with HBSS (1× Hanks balanced salte buffer, 10 mM Hepes-KOH, pH 7.1) and further incubated inside the system for 1 hr. […] The assay vehicle containing equal amount of DMSO (dimethyl sulfoxide) was used as a control. All ligand-induced DMR were background corrected.

[3] = target: T1, endogenous GPR35 in HT-29 cells; assay: DMR agonist assay in native HT-29 cells; type: cell-based; design: endogenous in cells; host or cells: HT-29; settings: for DMR response of the compound alone: HT-29, up to 64 µM; for maximal P-DMR amplitude: HT-29 cells, picometer shift of resonant wavelength, n = 36
Excerpt: First, multiple DMR assays were employed to characterize the pharmacology of D-luciferin in HT-29 cells, a native cell line endogenously expressing GPR35 [18]. […] Second, D-luciferin-induced internalization of endogenous GPR35 in HT-29 cells was examined. Third, D-luciferin-induced ERK phosphorylation in the absence and presence of GPR35 antagonists was examined in HT-29 cells. Fourth, Tango β-arrestin translocation assay was finally employed to examine the agonism of D-luciferin to cause β-arrestin translocation in an engineered cell line.
as §1, with “All DMR assays were performed using Epic® system (Corning Inc.). Epic® is” for “Epic® is”

[4] = target: T1, endogenous GPR35 in HT-29 cells; design: endogenous in cells; host or cells: HT-29; method as in PMID 21950657; settings: cited from earlier work
[5] = target: T1, endogenous GPR35 in HT-29 cells; design: endogenous in cells; host or cells: HT-29; method as in PMID 21950657; settings: up to 64 µM; cited from earlier work
[6] = target: T1, endogenous GPR35 in HT-29 cells; assay: cell-based
Method: as §1, with “All DMR assays were performed using Epic® system (Corning Inc.). Epic® is” for “Epic® is”

[7] = target: T2, human GPR35 in Tango GPR35-bla U2OS cells (Homo sapiens, UniProt Q9HC97); assay: cell-based; settings: read-out: maximal response relative to the zaprinast maximal response
[8] = target: T1, endogenous GPR35 in HT-29 cells
Method: All data represent mean ± s.d. from 2 independent measurements, each in duplicate (n = 4).
as §1, with “All DMR assays were performed using Epic® system (Corning Inc.). Epic® is” for “Epic® is”

[9] = target: T1, endogenous GPR35 in HT-29 cells; settings: 32 µM, 1 hr
Excerpt: Representative images obtained from 2 independent measurements were used.

[10] = target: T2, human GPR35 in Tango GPR35-bla U2OS cells
[11] = system: purified luciferase enzyme; settings: binding to purified luciferase enzyme; cited from earlier work

T2 sequence (Q9HC97 whole entry): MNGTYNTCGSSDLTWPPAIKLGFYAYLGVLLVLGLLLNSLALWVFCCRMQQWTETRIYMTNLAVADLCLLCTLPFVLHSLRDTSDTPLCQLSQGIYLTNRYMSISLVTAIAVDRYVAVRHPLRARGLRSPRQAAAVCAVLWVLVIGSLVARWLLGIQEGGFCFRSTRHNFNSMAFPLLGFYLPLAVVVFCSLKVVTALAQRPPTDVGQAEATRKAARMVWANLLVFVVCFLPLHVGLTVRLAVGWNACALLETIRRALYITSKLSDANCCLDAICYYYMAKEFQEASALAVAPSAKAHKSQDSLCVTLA
T1 sequence (Q9HC97 whole entry): as above

Structure (SMILES): O=C(O)c1cc2ccccc2c(Cc2c(O)c(C(=O)O)cc3ccccc23)c1O [pamoic acid]
ERK phosphorylation ([1]; 1 µM, 30 min after treatment): much lower ERK phosphorylation

Structure (SMILES): CC(/C=C1\SC(=S)N(CCCC(=O)Nc2ccc(C(=O)O)c(O)c2)C1=O)=C\c1ccccc1 [ML145]
effect on the D-luciferin-induced ERK phosphorylation [1]: dose-dependently attenuated

IC50 [2]: 2.6 ± 0.3 µM | DMR response of the compound alone [3]: little response
Structure (SMILES): COC(=O)c1cnn(-c2ccc(F)cc2F)c1/C=N/NC(=S)Nc1ccccc1 [SPB05143]

IC50 [2]: 1.5 ± 0.2 µM | D-luciferin DMR in presence of antagonist at the two highest doses ([2]; SPB05142 at 16 and 32 µM, D-luciferin 32 µM): small but detectable negative DMR signal
Structure (SMILES): COC(=O)c1cnn(-c2ccc(F)cc2F)c1C=NNC(=S)NC(C)(C)C [SPB05142, methyl-5-[(tert-butylcarbamothioylhydrazinylidene)-methyl]-1-(2,4-difluorophenyl)-pyrazole-4-carboxylate]
ERK phosphorylation by compound alone ([1]; 25 µM): weak but detectable ERK phosphorylation | effect on the D-luciferin-induced ERK phosphorylation [1]: dose-dependently attenuated | blockade of the DMR induced by zaprinast [4]: almost completely blocked | DMR response of the compound alone [5]: did not lead to any detectable DMR

Structure (SMILES): Cc1c(C(=O)O)sc2c(Br)csc12 [YE210]
ERK phosphorylation ([1]; 1 µM, 30 min after treatment): led to ERK phosphorylation

maximal P-DMR amplitude [3]: 276±17 pm
Structure (SMILES): CCCOc1ccccc1-c1nc2nn[nH]c2c(=O)[nH]1 [zaprinast]
ERK phosphorylation ([1]; 1 µM, 30 min after treatment): led to ERK phosphorylation

IC50 [6]: 6.8 ± 0.7 µM | Emax [7]: 20% | maximal P-DMR amplitude [3]: 198±12 pm | effect on the potency of pamoic acid in DMR co-stimulation ([8]; D-luciferin at different fixed doses, up to 50 µM): did not alter the potency | internalization of endogenous GPR35 [9]: remarked internalization | effect on the maximal response of zaprinast, Tango co-stimulation ([10]; 100 µM D-luciferin): only slightly suppressed | effect on the maximal response of zaprinast, Tango co-stimulation ([10]; 1 mM D-luciferin): suppressed the maximal response | effect on the potency of zaprinast, Tango co-stimulation ([10]; D-luciferin at 100 µM and 1 mM): little impact
Structure (SMILES): O=C(O)[C@H]1CSC(c2nc3ccc(O)cc3s2)=N1 [D-luciferin, (S)-2-(6′-hydroxy-2′-benzothiazolyl)thiazoline-4-carboxylic acid]
time of maximum ERK phosphorylation after stimulation ([1]; 32 µM D-luciferin): 2 min | ERK phosphorylation ([1]; 32 µM D-luciferin for different times): led to phosphorylation of ERK in a time-dependent manner | effect on DMR of pamoic acid at 200 nM (saturating concentration) ([8]; high doses of D-luciferin): reduced the DMR in a dose-dependent manner | Km [11]: 16 µM

IC50 [2]: 5 ± 0.9 µM | DMR response of the compound alone [3]: little response
Structure (SMILES): COC(=O)c1cnn(-c2ccc(F)cc2F)c1/C=N/NC(N)=S [SPB05140]
